Literature values as cited in US20240165126A1 (TONIX PHARMACEUTICALS HOLDING CORP., priority 2021, published 2024).

Conditions: orally administered; extensive first pass hepatic metabolism; Smith et al. 2012

Q: For `C=CCN1CC[C@]23c4c5ccc(O)c4O[C@H]2C(=O)CC[C@@]3(O)[C@H]1C5` [Naloxone], which systemic bioavailability is on record?
A: ≤ 2%
